In PubChem BioAssay (NCI):
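Tested at 5 concentrations; 48 h exposure; 96-well plates; endpoints linearly interpolated, else capped at highest concentration. At the TGI there is no net growth.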

Experiments:
Experiment in all cases: NCI-60 cell line screen, 48 h
[1] = test system: SNB-75 CNS
[2] = test system: NCI-H522 lung
[3] = test system: NCI-H226 lung
[4] = test system: HCT-116 colon
[5] = test system: HOP-18 NSCLC
[6] = test system: LXFL 529 NSCLC
[7] = test system: NCI-H460 lung
[8] = test system: U251 CNS
[9] = test system: SNB-19 CNS
[10] = test system: MALME-3M melanoma
[11] = test system: SW-620 colon
[12] = test system: OVCAR-4 ovarian
[13] = test system: SK-MEL-5 melanoma
[14] = test system: UO-31 renal
[15] = test system: HCC-2998 colon
[16] = test system: DLD-1 colon
[17] = test system: A498 renal
[18] = test system: ACHN renal
[19] = test system: SF-295 CNS
[20] = test system: COLO 205 colon
[21] = test system: DMS 273 small cell lung
[22] = test system: OVCAR-8 ovarian
[23] = test system: SK-MEL-2 melanoma
[24] = test system: MOLT-4 leukemia
[25] = test system: K-562 leukemia
[26] = test system: SF-268 CNS
[27] = test system: HT29 colon
[28] = test system: NCI-H23 lung
[29] = test system: TK-10 renal
[30] = test system: HL-60(TB) leukemia
[31] = test system: KM20L2 colon
[32] = test system: SK-MEL-28 melanoma
[33] = test system: RPMI-8226 leukemia
[34] = test system: OVCAR-5 ovarian
[35] = test system: UACC-62 melanoma
[36] = test system: SK-OV-3 ovarian
[37] = test system: HCT-15 colon
[38] = test system: CAKI-1 renal
[39] = test system: UACC-257 melanoma
[40] = test system: M19-MEL melanoma
[41] = test system: LOX IMVI melanoma
[42] = test system: HOP-62 NSCLC
[43] = test system: EKVX NSCLC
[44] = test system: CCRF-CEM leukemia
[45] = test system: RXF 393 renal
[46] = test system: SN12C renal
[47] = test system: KM12 colon
[48] = test system: A549 NSCLC
[49] = test system: IGROV1 ovarian
[50] = test system: OVCAR-3 ovarian
[51] = test system: SF-539 CNS
[52] = test system: DMS 114 small cell lung
[53] = test system: HOP-92 NSCLC
[54] = test system: SR leukemia
[55] = test system: M14 melanoma
[56] = test system: SNB-78 CNS
[57] = test system: 786-0 renal
[58] = test system: XF 498 CNS

Structure (SMILES): C[C@@H](O)CCC(=O)c1ccoc1
- TGI [1]: > 100 µM
- TGI [2]: > 100 µM
- TGI [3]: > 100 µM
- TGI [4]: > 100 µM
- TGI [5]: > 100 µM
- TGI [6]: > 100 µM
- TGI [7]: > 100 µM
- TGI [8]: > 100 µM
- TGI [9]: > 100 µM
- TGI [10]: > 100 µM
- TGI [11]: > 100 µM
- TGI [12]: > 100 µM
- TGI [13]: > 100 µM
- TGI [14]: > 100 µM
- TGI [15]: > 100 µM
- TGI [16]: > 100 µM
- TGI [17]: > 100 µM
- TGI [18]: > 100 µM
- TGI [19]: > 100 µM
- TGI [20]: > 100 µM
- TGI [21]: > 100 µM
- TGI [22]: > 100 µM
- TGI [23]: > 100 µM
- TGI [24]: > 100 µM
- TGI [25]: > 100 µM
- TGI [26]: > 100 µM
- TGI [27]: > 100 µM
- TGI [28]: > 100 µM
- TGI [29]: > 100 µM
- TGI [30]: > 100 µM
- TGI [31]: > 100 µM
- TGI [32]: > 100 µM
- TGI [33]: > 100 µM
- TGI [34]: > 100 µM
- TGI [35]: > 100 µM
- TGI [36]: > 100 µM
- TGI [37]: > 100 µM
- TGI [38]: > 100 µM
- TGI [39]: > 100 µM
- TGI [40]: > 100 µM
- TGI [41]: > 100 µM
- TGI [42]: > 100 µM
- TGI [43]: > 100 µM
- TGI [44]: > 100 µM
- TGI [45]: > 100 µM
- TGI [46]: > 100 µM
- TGI [47]: > 100 µM
- TGI [48]: > 100 µM
- TGI [49]: > 100 µM
- TGI [50]: > 100 µM
- TGI [51]: > 100 µM
- TGI [52]: > 100 µM
- TGI [53]: > 100 µM
- TGI [54]: > 100 µM
- TGI [55]: > 100 µM
- TGI [56]: > 100 µM
- TGI [57]: > 100 µM

Structure (SMILES): COC1/C(=C\c2ccccc2I)c2ccccc2N1C(C)=O (configuration not stated)
- TGI [1]: 55 µM
- TGI [4]: 26.8 µM
- TGI [5]: 38.1 µM
- TGI [6]: 87.4 µM
- TGI [7]: 33.5 µM
- TGI [8]: 42.6 µM
- TGI [9]: 60.4 µM
- TGI [11]: 39.2 µM
- TGI [12]: 32.1 µM
- TGI [14]: 9.91 µM
- TGI [15]: 33.9 µM
- TGI [16]: 43.4 µM
- TGI [17]: 30.1 µM
- TGI [18]: > 100 µM
- TGI [19]: 29.2 µM
- TGI [20]: 31.5 µM
- TGI [21]: 27.1 µM
- TGI [22]: > 100 µM
- TGI [23]: 32.5 µM
- TGI [24]: 35.8 µM
- TGI [25]: 53.3 µM
- TGI [27]: 37.1 µM
- TGI [28]: 36.5 µM
- TGI [30]: 16.1 µM
- TGI [31]: 30 µM
- TGI [32]: 38.3 µM
- TGI [33]: 39.1 µM
- TGI [35]: 26.7 µM
- TGI [37]: 37.4 µM
- TGI [38]: 50 µM
- TGI [39]: 44.1 µM
- TGI [40]: 42.4 µM
- TGI [42]: 32.7 µM
- TGI [43]: 39.6 µM
- TGI [44]: 59.1 µM
- TGI [45]: 22.3 µM
- TGI [46]: 28.8 µM
- TGI [47]: 29 µM
- TGI [48]: 35.8 µM
- TGI [49]: 39.6 µM
- TGI [50]: 31.2 µM
- TGI [51]: 31.2 µM
- TGI [52]: 38.7 µM
- TGI [53]: 8.99 µM
- TGI [54]: 42.9 µM
- TGI [56]: 82.5 µM
- TGI [57]: 33.3 µM

Structure (SMILES): O=C1OCCC1(Cc1ccc(Cl)cc1)Cc1ccc(Cl)cc1
- TGI [1]: 56.5 µM
- TGI [2]: > 100 µM
- TGI [3]: > 100 µM
- TGI [4]: > 100 µM
- TGI [6]: > 100 µM
- TGI [7]: > 100 µM
- TGI [8]: > 100 µM
- TGI [9]: > 100 µM
- TGI [10]: > 100 µM
- TGI [11]: > 100 µM
- TGI [12]: > 100 µM
- TGI [14]: > 100 µM
- TGI [16]: > 100 µM
- TGI [17]: > 100 µM
- TGI [18]: > 100 µM
- TGI [19]: > 100 µM
- TGI [20]: > 100 µM
- TGI [22]: > 100 µM
- TGI [23]: > 100 µM
- TGI [24]: > 100 µM
- TGI [25]: > 100 µM
- TGI [26]: > 100 µM
- TGI [27]: > 100 µM
- TGI [28]: > 100 µM
- TGI [29]: > 100 µM
- TGI [30]: > 100 µM
- TGI [32]: > 100 µM
- TGI [33]: > 100 µM
- TGI [34]: > 100 µM
- TGI [35]: > 100 µM
- TGI [36]: > 100 µM
- TGI [38]: > 100 µM
- TGI [39]: > 100 µM
- TGI [40]: > 100 µM
- TGI [42]: 89.2 µM
- TGI [43]: > 100 µM
- TGI [44]: > 100 µM
- TGI [46]: > 100 µM
- TGI [47]: > 100 µM
- TGI [48]: > 100 µM
- TGI [49]: > 100 µM
- TGI [50]: > 100 µM
- TGI [58]: 43.3 µM
- TGI [53]: 96.3 µM
- TGI [54]: > 100 µM
- TGI [55]: > 100 µM
- TGI [56]: > 100 µM
- TGI [57]: > 100 µM
